Assay results from ChEMBL document CHEMBL3045550, “Design, synthesis and biological activities of new strobilurin derivatives containing substituted pyrazoles” (2010).

Assays:
Format in all cases: functional
Tetranychus cinnabarinus [1] = experiment: Acaricidal activity against Tetranychus cinnabarinus (carmine spider mite) in kidney bean plants assessed as mortality at 38 mg/l after 48 hr relative to control
Tetranychus cinnabarinus [2] = experiment: Acaricidal activity against Tetranychus cinnabarinus (carmine spider mite) in kidney bean plants assessed as mortality at 150 mg/l after 48 hr relative to control
Tetranychus cinnabarinus [3] = experiment: Acaricidal activity against Tetranychus cinnabarinus (carmine spider mite) in kidney bean plants assessed as mortality at 600 mg/l after 48 hr relative to control
[4] = test system: Blumeria graminis f. sp. tritici; experiment: Antifungal activity against Blumeria graminis f. sp. tritici infected seven-day-old wheat seedlings assessed as disease control at 1.56 mg/l after 7 days relative to control
[5] = test system: Blumeria graminis f. sp. tritici; experiment: Antifungal activity against Blumeria graminis f. sp. tritici infected seven-day-old wheat seedlings assessed as disease control at 12.5 mg/l after 7 days relative to control
[6] = test system: Blumeria graminis f. sp. tritici; experiment: Antifungal activity against Blumeria graminis f. sp. tritici infected seven-day-old wheat seedlings assessed as disease control at 400 mg/l after 7 days relative to control
[7] = test system: Pseudoperonospora cubensis; experiment: Antifungal activity against Pseudoperonospora cubensis infected cucumber leaves assessed as disease control at 3.12 mg/l after 5 days relative to control
[8] = test system: Pseudoperonospora cubensis; experiment: Antifungal activity against Pseudoperonospora cubensis infected cucumber leaves assessed as disease control at 6.25 mg/l after 5 days relative to control
[9] = test system: Pseudoperonospora cubensis; experiment: Antifungal activity against Pseudoperonospora cubensis infected cucumber leaves assessed as disease control at 25 mg/l after 5 days relative to control
[10] = test system: Pseudoperonospora cubensis; experiment: Antifungal activity against Pseudoperonospora cubensis infected cucumber leaves assessed as disease control at 400 mg/l after 5 days relative to control
Botrytis cinerea = experiment: Antifungal activity against Botryotinia fuckeliana infected cucumber leaves assessed as disease control at 400 mg/l after 4 days relative to control
Pyricularia oryzae = experiment: Antifungal activity against Magnaporthe oryzae infected 12 day old rice plant assessed as disease control at 400 mg/l after 6 days relative to control

| SMILES | Activity (Tetranychus cinnabarinus [1]) [%] | Activity (Tetranychus cinnabarinus [2]) [%] | Activity (Tetranychus cinnabarinus [3]) [%] | Activity [4] [%] | Activity [5] [%] | Activity [6] [%] | Activity [7] [%] | Activity [8] [%] | Activity [9] [%] | Activity [10] [%] | Activity (Botrytis cinerea) [%] | Activity (Pyricularia oryzae) [%] |
| --- | --- | --- | --- | --- | --- | --- | --- | --- | --- | --- | --- | --- |
| CO/C=C(/C(=O)OC)c1ccccc1COc1cc(-c2ccccc2Cl)nn1C | 0 | 0 | 100 | 40 | 100 | 100 | 0 | 0 | 100 | 100 | 0 | 0 |
| CO/C=C(/C(=O)OC)c1ccccc1COc1c(C)c(-c2ccc(C)cc2)nn1C [METHYL 2-(2-((1,4-DIMETHYL-3-P-TOLYL-1H-PYRAZOL-5-YLOXY)METHYL)PHENYL)-3-METHOXYACRYLATE] | 0 | 0 | 100 | 45 | 100 | 100 | 40 | 75 | 100 | 100 | 0 | 0 |
| CO/C=C(/C(=O)OC)c1ccccc1COc1cc(-c2ccc(C)cc2C)nn1C [METHYL 2-(2-((3-(2,4-DIMETHYLPHENYL)-1-METHYL-1H-PYRAZOL-5-YLOXY)METHYL)PHENYL)-3-METHOXYACRYLATE] | 0 | 0 | 100 | 80 | 100 | 100 | 20 | 70 | 100 | 100 | 50 | 100 |
| CO/C=C(/C(=O)OC)c1ccccc1COc1c(C)c(-c2cc(C)ccc2C)nn1C [METHYL 2-(2-((3-(2,5-DIMETHYLPHENYL)-1,4-DIMETHYL-1H-PYRAZOL-5-YLOXY)METHYL)PHENYL)-3-METHOXYACRYLATE] | 0 | 20 | 100 | 0 | 50 | 100 | 0 | 0 | 80 | 100 | 50 | 100 |
| CO/C=C(/C(=O)OC)c1ccccc1COc1c(C)c(-c2ccc(C)c(C)c2)nn1C [METHYL 2-(2-((3-(3,4-DIMETHYLPHENYL)-1,4-DIMETHYL-1H-PYRAZOL-5-YLOXY)METHYL)PHENYL)-3-METHOXYACRYLATE] | 0 | 80 | 100 | 70 | 100 | 100 | 30 | 85 | 100 | 100 | 50 | 100 |
| CO/C=C(/C(=O)OC)c1ccccc1COc1cc(-c2ccc(C)c(C)c2)nn1C [METHYL 2-(2-((3-(3,4-DIMETHYLPHENYL)-1-METHYL-1H-PYRAZOL-5-YLOXY)METHYL)PHENYL)-3-METHOXYACRYLATE] | 0 | 0 | 100 | 80 | 100 | 100 | 35 | 40 | 100 | 100 | 50 | 100 |
| CO/C=C(/C(=O)OC)c1ccccc1COc1cc(-c2ccc(Br)cc2)nn1C [METHYL 2-(2-((3-(4-BROMOPHENYL)-1-METHYL-1H-PYRAZOL-5-YLOXY)METHYL)PHENYL)-3-METHOXYACRYLATE] | 57 | 71 | 100 | 10 | 100 | 100 | 60 | 85 | 100 | 100 | 0 | 70 |
| CCOc1ccc(-c2nn(C)c(OCc3ccccc3/C(=C\OC)C(=O)OC)c2C)cc1 [METHYL 2-(2-((3-(4-ETHOXYPHENYL)-1,4-DIMETHYL-1H-PYRAZOL-5-YLOXY)METHYL)PHENYL)-3-METHOXYACRYLATE] | 20 | 35 | 100 | 65 | 100 | 100 | 0 | 0 | 50 | 100 | 100 | 100 |
| CCc1ccc(-c2nn(C)c(OCc3ccccc3/C(=C\OC)C(=O)OC)c2C)cc1 [METHYL 2-(2-((3-(4-ETHYLPHENYL)-1,4-DIMETHYL-1H-PYRAZOL-5-YLOXY)METHYL)PHENYL)-3-METHOXYACRYLATE] | 30 | 100 | 100 | 0 | 100 | 100 | 20 | 60 | 100 | 100 | 0 | 0 |
| CO/C=C(/C(=O)OC)c1ccccc1COc1c(C)c(-c2ccc(C(C)(C)C)cc2)nn1C [METHYL 2-(2-((3-(4-TERT-BUTYLPHENYL)-1,4-DIMETHYL-1H-PYRAZOL-5-YLOXY)METHYL)PHENYL)-3-METHOXYACRYLATE] | 0 | 0 | 100 | 0 | 10 | 90 | 0 | 0 | 20 | 95 | 50 | 50 |
| CO/C=C(/C(=O)OC)c1ccccc1COc1c(C)c(-c2ccc(OC)cc2)nn1C [METHYL 3-METHOXY-2-(2-((3-(4-METHOXYPHENYL)-1,4-DIMETHYL-1H-PYRAZOL-5-YLOXY)METHYL)PHENYL)ACRYLATE] | 0 | 0 | 90 | 95 | 100 | 100 | 55 | 96 | 100 | 100 | 100 | 100 |
| CO/C=C(/C(=O)OC)c1ccccc1COc1cc(-c2ccc(Cl)cc2)nn1C [PYRAOXYSTROBIN] | 0 | 0 | 100 | 0 | 75 | 100 | 100 | 100 | 100 | 100 | 100 | 100 |
